Assay results published in US9593096B2, “α7 nicotinic acetylcholine receptor modulators and uses thereof-III” (Merck Sharp & Dohme Corp., priority 2013, dated 2017).

What was measured:
rat α7 nAChRs = biological target: T1, rat α7 nAChRs (Rattus norvegicus, UniProt Q05941); test: Automated planar patch clamp (Patchliner) for α7 nAChR positive allosteric modulation; type: cell-based; set-up: key to Type I or Type II: I: Type 1 predominately affects the peak current; Type II modulators affect the peak current and also delay the desensitization of the receptor; details: for activation at 3 µM: GH4-C1, 3 μM compound in the presence of acetylcholine, GH4C1 cells expressing rat α7 nAChRs, relative to control ACh response, read-out: Peak potentiation at 3 μM compound; for Type I or Type II: modulator type based on the electrophysiology trace
T1 construct: expressed in transfected cells; host or cells: GH4C1 (rat pituitary cell line) stably expressing α7 nAChR
T1 sequence (Q05941 23-502): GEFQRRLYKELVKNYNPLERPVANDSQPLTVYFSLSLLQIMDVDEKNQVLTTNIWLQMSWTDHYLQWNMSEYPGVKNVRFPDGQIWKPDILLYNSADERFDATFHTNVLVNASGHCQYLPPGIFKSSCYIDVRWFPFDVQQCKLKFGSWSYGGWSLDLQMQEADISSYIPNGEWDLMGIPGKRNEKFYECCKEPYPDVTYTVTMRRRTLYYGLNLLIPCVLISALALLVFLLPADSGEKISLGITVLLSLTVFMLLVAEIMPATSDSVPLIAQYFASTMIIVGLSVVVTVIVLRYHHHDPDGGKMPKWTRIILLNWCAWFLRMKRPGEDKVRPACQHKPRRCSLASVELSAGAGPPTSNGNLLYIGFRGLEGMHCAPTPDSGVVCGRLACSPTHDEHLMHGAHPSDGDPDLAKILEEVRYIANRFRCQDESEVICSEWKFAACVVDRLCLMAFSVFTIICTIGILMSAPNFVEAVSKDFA
Protocol: Compounds of the invention may be evaluated by electrophysiology using a Patchliner® (Nanion Technologies GmbH, Germany), an automated planar patch-clamp platform of medium throughput was used as a first step in electrophysiological assessment of α7 nAChR positive allosteric modulators (PAMs).
Briefly, intracellular (KCl—50 mM, NaCl—10 mM, KF—60 mM, EGTA—20 mM, HEPES—10 mM, pH—7.2, 285 mOsmol) and extracellular (NaCl—140 mM, KCl—4 mM, CaCl2-2 mM, MgCl2—1 mM, HEPES—10 mM, D-Glucose—5 mM, pH—7.4, 298 mOsmol) solutions were automatically pipetted onto NPC-16 chip (medium resistance ˜2.5-2.6 MΩ). Suspension of GH4C1 cells expressing rat α7 nAChRs was introduced in 4 wells of a medium resistance chip and suction was applied to attract cells in the holes. The extracellular solution was subsequently exchanged to high calcium solution (NaCl—80 mM, KCl—3 mM, CaCl2—45 mM, HEPES—10 mM, pH—7.4, 298 mOsmol) followed by gigaohm seal formation and obtaining whole-cell configuration. The rest of protocol was carried out in the high-calcium recording solution. Holding potential was −70 mV throughout the protocol. A control response to 60 or 100 μM of ACh was obtained first. Next, a cell was pre-incubated with compound of interest at 3 μM for ˜30 s after which the compound was co-applied with acetylcholine.
Amplitude of the responses was measured in HEKA Patchmaster software (HEKA Elektronik, Germany) and percentage of potentiation calculated. Recording was repeated […] a minimum of two replicates had been obtained per compound.
Compounds shown in Table 1 were evaluated by automated planar patch clamp on the Patchliner® as described in Example P2.1. […] The compounds are designated either as Type I or Type II modulators based on the electrophysiology trace. Type 1 predominately affects the peak current. Type II modulators affect the peak current and also delay the desensitization of the receptor.

mice = test: T-maze Continuous Alternation Task (T-CAT), scopolamine-induced cognitive impairment; type: in vivo; details: mouse, dosed orally at 10 mg/kg, scopolamine-induced disruption of spontaneous alternation
Description: The T-maze Continuous Alternation Task (T-CAT) measures spontaneous alternation, which is the innate tendency of mice to alternate free choices in a T-maze over a series of successive runs. This sequential procedure relies on working memory and is sensitive to various pharmacological manipulations affecting memory processes.
The T-maze apparatus is made of gray Plexiglas with a main stem (55 cm long×10 cm wide×25 cm high) and two arms (30 cm long×10 cm wide×25 cm high) positioned at 90 degree angle relative to the main stem. A start box (15 cm long×10 cm wide) is separated from the main stem by a sliding door. Sliding doors are also provided to close specific arms during the forced-choice alternation task.
The experimental protocol consists of one single session, which starts with 1 “forced-choice” trial, followed by 14 “free-choice” trials. In the first “forced-choice” trial, the animal is confined for 5 s in the start arm and then it is released while either the left or right goal arm is blocked by a sliding door. The animal will negotiate the maze, eventually enter the open goal arm, and return to the start position. Immediately after the return to the start position, the left or right goal door is opened and the animal is allowed to choose freely between the left and right goal arm (“free choice” trials). The animal is considered to have entered an arm when it places four paws in the arm. A session is terminated and the animal is removed from the maze as soon as 14 free-choice trials have been performed or 10 minutes have elapsed, whichever event occurs first. The percentage of alternation over the 14 free-choice trials is determined for each mouse and is used as an index of working memory performance. This percentage is defined as entry in a different arm of the T-maze over successive visits (i.e., left-right-left-right, etc).
Scopolamine administered 20 minutes prior the initiation of the T-maze session is used to induce disruption in the spontaneous alternation of mice. Test compounds are administered 60 minutes prior the start of the T-maze session in order to evaluate their ability to reverse the scopolamine effect.
The apparatus is cleaned between each animal using alcohol (70°). Urine and faeces are removed from the maze. During the trials, animal handling and the visibility of the operator are minimized as much as possible.
The compounds were dosed orally at 10 mg/kg.

SMILES	activation at 3 µM (rat α7 nAChRs)	Type I or Type II (rat α7 nAChRs)	T-maze % control at 10 mg/kg (mice)
Cc1ccc2c(c1)c(C(=O)Nc1cc(C(F)(F)F)ncn1)cn2C [Example 8, 1,5-dimethyl-N-[6-(trifluoromethyl)pyrimidin-4-yl]-1H-indole-3-carboxamide]	428%	I	
Cn1cc(C(=O)Nc2ccnc(C(F)(F)F)c2)c2cc(C(F)(F)F)ccc21 [Example 9, 1-methyl-5-(trifluoromethyl)-N-[2-(trifluoromethyl)pyridin-4-yl]-1H-indole-3-carboxamide]	83%	I	
CC(C)n1cc(C(=O)Nc2cncc(F)c2)c2cc(F)ccc21 [Example 6, 5-fluoro-N-(5-fluoropyridin-3-yl)-1-(propan-2-yl)-1H-indole-3-carboxamide]	374%	I	
Cc1ccc2c(c1)c(C(=O)Nc1ccnc(C(F)(F)F)c1)cn2C [Example 7, 1,5-dimethyl-N-[2-(trifluoromethyl)pyridin-4-yl]-1H-indole-3-carboxamide]	663%	I	80%
CCn1cc(C(=O)Nc2cncc(F)c2)c2cc(F)ccc21 [Example 1, 1-ethyl-5-fluoro-N-(5-fluoropyridin-3-yl)-1H-indole-3-carboxamide]		I	70%
Cn1cc(C(=O)Nc2cncc(F)c2)c2cc(C(F)(F)F)ccc21 [Example 10, N-(5-fluoropyridin-3-yl)-1-methyl-5-(trifluoromethyl)-1H-indole-3-carboxamide]	41%	I	
Cn1cc(C(=O)Nc2ccnc(C(F)(F)F)c2)c2cc(F)ccc21 [Example 5, 5-fluoro-1-methyl-N-[2-(trifluoromethyl)pyridin-4-yl]-1H-indole-3-carboxamide]	326%	I	78%
O=C(Nc1ccnc(C(F)(F)F)c1)c1cn(CCO)c2ccc(F)cc12 [Example 12, 5-fluoro-1-(2-hydroxyethyl)-N-[2-(trifluoromethyl)pyridin-4-yl]-1H-indole-3-carboxamide]	257%	I	
CCn1cc(C(=O)Nc2cc(C(F)(F)F)ncn2)c2cc(F)ccc21 [Example 2, 1-ethyl-5-fluoro-N-[6-(trifluoromethyl)pyrimidin-4-yl]-1H-indole-3-carboxamide]		I	76%
CCn1cc(C(=O)Nc2ccnc(C(F)(F)F)n2)c2cc(F)ccc21 [Example 4, 1-ethyl-5-fluoro-N-[2-(trifluoromethyl)pyrimidin-4-yl]-1H-indole-3-carboxamide]	30%	I	
CCn1cc(C(=O)Nc2ccc(C(F)(F)F)nc2)c2cc(F)ccc21 [Example 3, 1-ethyl-5-fluoro-N-[6-(trifluoromethyl)pyridin-3-yl]-1H-indole-3-carboxamide]			73%
Cn1cc(-c2ccc3c(c2)c(C(=O)Nc2ccnc(C(F)(F)F)c2)cn3C)cn1 [Example 11, 1-methyl-5-(1-methyl-1H-pyrazol-4-yl)-N-[2-(trifluoromethyl)pyridin-4-yl]-1H-indole-3-carboxamide]	78%	I	
